What was measured:
[1] = target: human EGFR kinase domain (Homo sapiens (Human), UniProt P00533); test: Human EGFR LanthaScreen Selectivity Assay (TR-FRET); type: biochemical; settings: 20 μM ATP, 600 pM EGFR kinase domain; run with and without 60 minutes pre-incubation
Procedure: The kinase reaction mixtures were incubated at room temperature for 60 minutes before stopping the kinase activity by the addition of 15 mM EDTA. The extent of peptide phosphorylation by EGFR was detected using a Terbium-conjugated anti-phospho-Tyrosine antibody (Tb-PT66 antibody, Invitrogen # PV3557).

[2] = target: human full-length BTK Kinase (Homo sapiens (Human), UniProt Q06187); test: Human BTK LanthaScreen Assay (TR-FRET); type: biochemical; settings: 50 μM ATP, 70 pM BTK, 100 nM FAM-Srctide; run with and without 60 minutes pre-incubation (table does not say which); read-out: BTK Inhibition IC50
[3] = system: Human B cells; test: Human Primary B Cell Proliferation Assay; type: cell-based; settings: 50 μg/mL anti-human IgM F(ab')2 for 72 hours, 3H-thymidine incorporation
Procedure: Human B cells were purified from buffy coats using the human B cell RosetteSep kit per manufacturer's instructions. Purified cells were resuspended in RPMI-10% HIFCS, 2 mM L-glutamine, 100 U/mL penicillin, 100 μg/ml streptomycin, incubated with compounds for 1 hour at 37° C. and then stimulated with 50 μg/mL anti-human IgM F(ab′)2 for 72 hours. ^3H-thymidine was included in the culture media for the final 8-16 hours. Cells were harvested and ^3H-thymidine incorporation was measured.

human EGFR kinase domain, sequence (P00533 712-979): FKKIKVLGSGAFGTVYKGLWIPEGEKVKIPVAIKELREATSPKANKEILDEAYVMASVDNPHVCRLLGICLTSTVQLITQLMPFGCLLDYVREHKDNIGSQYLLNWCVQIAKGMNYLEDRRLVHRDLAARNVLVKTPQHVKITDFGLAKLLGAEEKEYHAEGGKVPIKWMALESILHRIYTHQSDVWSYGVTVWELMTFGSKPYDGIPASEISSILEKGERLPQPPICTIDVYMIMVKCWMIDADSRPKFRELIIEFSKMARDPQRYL
human full-length BTK Kinase, sequence (Q06187 whole entry): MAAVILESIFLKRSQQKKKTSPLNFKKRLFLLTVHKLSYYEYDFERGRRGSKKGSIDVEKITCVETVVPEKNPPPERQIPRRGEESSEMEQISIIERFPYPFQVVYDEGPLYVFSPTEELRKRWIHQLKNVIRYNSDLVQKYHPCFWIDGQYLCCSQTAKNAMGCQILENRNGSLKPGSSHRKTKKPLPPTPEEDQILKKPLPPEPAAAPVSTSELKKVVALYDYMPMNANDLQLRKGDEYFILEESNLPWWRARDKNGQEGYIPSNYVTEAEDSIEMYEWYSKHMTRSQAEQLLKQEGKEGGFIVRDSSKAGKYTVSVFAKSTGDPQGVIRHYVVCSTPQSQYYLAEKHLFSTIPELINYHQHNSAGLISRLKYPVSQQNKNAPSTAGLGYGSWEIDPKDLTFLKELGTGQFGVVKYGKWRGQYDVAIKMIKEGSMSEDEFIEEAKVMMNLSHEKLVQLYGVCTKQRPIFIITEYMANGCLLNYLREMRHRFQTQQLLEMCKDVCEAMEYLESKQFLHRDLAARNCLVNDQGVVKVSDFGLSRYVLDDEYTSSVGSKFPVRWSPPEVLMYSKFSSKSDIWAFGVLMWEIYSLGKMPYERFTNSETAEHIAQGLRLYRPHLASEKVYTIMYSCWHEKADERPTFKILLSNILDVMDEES

| SMILES | IC50 [1] [µM] | IC50 [2] [µM] | IC50 [3] [µM] |
| --- | --- | --- | --- |
| NC(=O)c1c(-c2ccc(Oc3ccc(Cl)cc3)cc2)nn([C@@H]2CCCN(C(=O)/C=C/CO)C2)c1N [Example 131, 5-amino-3-[4-(4-chlorophenoxy)phenyl]-1-{(3R)-1-[(2E)-4-hydroxybut-2-enoyl]piperidin-3-yl}-1H-pyrazole-4-carboxamide] | 2.2 | 0.0023 |  |
| NC(=O)c1c(-c2ccc(Oc3ccc(Cl)cc3)cc2)nn([C@@H]2CCCN(C(=O)/C=C/CF)C2)c1N [Example 132, 5-amino-3-[4-(4-chlorophenoxy)phenyl]-1-{(3R)-1-[(2E)-4-fluorobut-2-enoyl]piperidin-3-yl}-1H-pyrazole-4-carboxamide] |  | 0.0011 |  |
| NC(=O)c1c(-c2ccc(Oc3ccc(F)cc3F)cc2)nn([C@@H]2CCCN(C(=O)/C=C/CF)C2)c1N [Example 145, 5-amino-3-[4-(2,4-difluorophenoxy)phenyl]-1-{(3R)-1-[(2E)-4-fluorobut-2-enoyl]piperidin-3-yl}-1H-pyrazole-4-carboxamide] | 2.18 | 0.0028 |  |
| NC(=O)c1c(-c2ccc(Oc3ccc(F)cc3F)cc2)nn([C@@H]2CCCN(C(=O)/C(F)=C/CO)C2)c1N [Example 146, 5-amino-3-[4-(2,4-difluorophenoxy)phenyl]-1-{(3R)-1-[(2Z)-2-fluoro-4-hydroxybut-2-enoyl]piperidin-3-yl}-1H-pyrazole-4-carboxamide] |  | 0.048 |  |
| CC(C)(O)/C=C/C(=O)N1CCC[C@@H](n2nc(-c3ccc(Oc4ccc(F)cc4F)cc3)c(C(N)=O)c2N)C1 [Example 147, 5-amino-3-[4-(2,4-difluorophenoxy)phenyl]-1-{(3R)-1-[(2E)-4-hydroxy-4-methylpent-2-enoyl]piperidin-3-yl}-1H-pyrazole-4-carboxamide] |  | 0.241 |  |
| C[C@H](O)/C=C/C(=O)N1CCC[C@@H](n2nc(-c3ccc(Oc4ccc(F)cc4F)cc3)c(C(N)=O)c2N)C1 [Example 148, 5-amino-3-[4-(2,4-difluorophenoxy)phenyl]-1-{(3R)-1-[(2E,4S)-4-hydroxypent-2-enoyl]piperidin-3-yl}-1H-pyrazole-4-carboxamide] |  | 0.039 |  |
| C[C@@H](O)/C=C/C(=O)N1CCC[C@@H](n2nc(-c3ccc(Oc4ccc(F)cc4F)cc3)c(C(N)=O)c2N)C1 [Example 149, 5-amino-3-(4-(2,4-difluorophenoxy)phenyl)-1-((R)-1-((R,E)-4-hydroxypent-2-enoyl)piperidin-3-yl)-1H-pyrazole-4-carboxamide] |  | 0.052 |  |
| NC(=O)c1c(-c2ccc(Oc3ccc(F)cc3F)cc2)nn([C@@H]2CCCN(C(=O)/C=C/CO)C2)c1N [Example 151, 5-amino-3-[4-(2,4-difluorophenoxy)phenyl]-1-{(3R)-1-[(2E)-4-hydroxybut-2-enoyl]-piperidin-3-yl}-1H-pyrazole-4-carboxamide] | 12.1 | 0.0023 |  |
| N#C/C=C/C(=O)N1CCC[C@@H](n2nc(-c3ccc(Oc4ccc(F)cc4F)cc3)c(C(N)=O)c2N)C1 [Example 152, 5-amino-1-{(3R)-1-[(2E)-3-cyanoprop-2-enoyl]piperidin-3-yl}-3-[4-(2,4-difluorophenoxy)phenyl]-1H-pyrazole-4-carboxamide] |  | 0.0015 |  |
| NC(=O)c1c(-c2ccc(Oc3ncc(Cl)cc3F)cc2)nn([C@@H]2CCCN(C(=O)/C=C/CO)C2)c1N [Example 154, 5-amino-3-{4-[(5-chloro-3-fluoropyridin-2-yl)oxy]phenyl}-1-{(3R)-1-[(2E)-4-hydroxybut-2-enoyl]piperidin-3-yl}-1H-pyrazole-4-carboxamide] |  | 0.049 |  |
| NC(=O)c1c(-c2ccc(Oc3ncc(Cl)cc3F)cc2)nn([C@@H]2CCCN(C(=O)/C=C/C(F)F)C2)c1N [Example 155, 5-amino-3-{4-[(5-chloro-3-fluoropyridin-2-yl)oxy]phenyl}-1-{(3R)-1-[(2E)-4,4-difluorobut-2-enoyl]piperidin-3-yl}-1H-pyrazole-4-carboxamide] | 0.106 | 0.0007 | 0.002 |
| NC(=O)c1c(-c2ccc(Oc3ncc(Cl)cc3F)cc2)nn([C@@H]2CCCN(C(=O)/C=C/CF)C2)c1N [Example 156, 5-amino-3-{4-[(5-chloro-3-fluoropyridin-2-yl)oxy]phenyl}-1-{(3R)-1-[(2E)-4-fluorobut-2-enoyl]piperidin-3-yl}-1H-pyrazole-4-carboxamide] | 0.381 | 0.0014 |  |

Reference: patent US10815213B2, “Bruton's tyrosine kinase inhibitors” (Pfizer Inc., priority 2013, dated 2020)
